Reference: patent publication US20220142941A1, “COMBINATION THERAPEUTIC REGIMENS WITH 1,6-DIBROMO-1,6-DIDEOXY-DULCITOL” (Eleison Pharmaceuticals LLC, priority 2019, published 2022)

How the values were obtained:
Assay in all cases: DBD combination treatment, viability enhancement factor
Type in all cases: cell-based, human
GS324coreNS = GS324coreNS (p19), labelled therapy combined with crystalline DBD polymorph
Protocol: (§1) Crystalline DBD polymorph treatment was combined with chemotherapy, radiotherapy and targeted inhibitors to determine whether the crystalline DBD polymorph form could: enhance efficacy of the conventional therapies; enhance efficacy when combined with newer ‘targeted’ therapies; or would make (a subset of) cultures more sensitive to this treatment.
(§2) Therefore, cultures were treated with: • a.

GS245NS = GS245NS (p16 + p15), labelled therapy combined with crystalline DBD polymorph
Protocol: as §1, §2

GS186coreNS = GS186coreNS (p18), labelled therapy combined with crystalline DBD polymorph
Protocol: as §1, §2

GS323periNS = conditions: Day 5; GS323periNS (p20 + p19); labelled therapy combined with crystalline DBD polymorph
Protocol: as §1, §2

GS249NS = GS249NS (p17), labelled therapy combined with crystalline DBD polymorph
Protocol: as §1, §2

GS224NS = GS224NS (p17), labelled therapy combined with crystalline DBD polymorph
Protocol: as §1, §2

GS359NS = GS359NS (p15 + p14), labelled therapy combined with crystalline DBD polymorph
Protocol: as §1, §2

GS279coreNS = conditions: Day 5; GS279coreNS (p12 + p13); labelled therapy combined with crystalline DBD polymorph
Protocol: as §1, §2

GS257NS = GS257NS (p16 + p17), labelled therapy combined with crystalline DBD polymorph;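 note: DBD at its own IC50 and half IC50 determined at Day 5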
Protocol: as §1, §2

GS186periNS = GS186periNS (p15), labelled therapy combined with crystalline DBD polymorph
Protocol: as §1, §2

GS279periNS = GS279periNS (p16 + p15), labelled therapy combined with crystalline DBD polymorph;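 note: DBD at its own IC50 and half IC50 determined at Day 5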
Protocol: as §1, §2

GS365NS = GS365NS (p17 + p16), labelled therapy combined with crystalline DBD polymorph
Protocol: as §1, §2

GS102periNS = GS102periNS (p20 + p21), labelled therapy combined with crystalline DBD polymorph
Protocol: as §1, §2

GS289NS = GS289NS (p15 + p16), labelled therapy combined with crystalline DBD polymorph;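 note: DBD at its own IC50 and half IC50 determined at Day 5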
Protocol: as §1, §2

GS304NS = GS304NS (p16), labelled therapy combined with crystalline DBD polymorph
Protocol: as §1, §2

GS281NS = GS281NS (p15), labelled therapy combined with crystalline DBD polymorph
Protocol: as §1, §2

GS104periNS = GS104periNS (p21 + p22), labelled therapy combined with crystalline DBD polymorph
Protocol: as §1, §2

GS261NS = GS261NS (p13), labelled therapy combined with crystalline DBD polymorph
Protocol: as §1, §2

GS184NS = GS184NS (p18 + p19), labelled therapy combined with crystalline DBD polymorph;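 note: DBD at its own IC50 and half IC50 determined at Day 5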
Protocol: as §1, §2

GS203NS = conditions: Day 8; GS203NS (P19 + p18); labelled therapy combined with crystalline DBD polymorph
Protocol: as §1, §2

SMILES	enhancement factor (viability % of most effective monotherapy divided by viability % of combination) (GS324coreNS; Day 5)	enhancement factor (viability % of most effective monotherapy divided by viability % of combination) (GS324coreNS; Day 8)	enhancement factor (viability % of most effective monotherapy divided by viability % of combination) (GS245NS; Day 5)	enhancement factor (viability % of most effective monotherapy divided by viability % of combination) (GS245NS; Day 8)	enhancement factor (viability % of most effective monotherapy divided by viability % of combination) (GS186coreNS; Day 5)	enhancement factor (viability % of most effective monotherapy divided by viability % of combination) (GS186coreNS; Day 8)	enhancement factor (viability % of most effective monotherapy divided by viability % of combination) (GS323periNS)	enhancement factor (viability % of most effective monotherapy divided by viability % of combination) (GS249NS; Day 5)	enhancement factor (viability % of most effective monotherapy divided by viability % of combination) (GS224NS; Day 5)	enhancement factor (viability % of most effective monotherapy divided by viability % of combination) (GS224NS; Day 8)	enhancement factor (viability % of most effective monotherapy divided by viability % of combination) (GS359NS; Day 5)	enhancement factor (viability % of most effective monotherapy divided by viability % of combination) (GS359NS; Day 8)	enhancement factor (viability % of most effective monotherapy divided by viability % of combination) (GS279coreNS)	enhancement factor (viability % of most effective monotherapy divided by viability % of combination) (GS257NS; Day 5)	enhancement factor (viability % of most effective monotherapy divided by viability % of combination) (GS257NS; Day 8)	enhancement factor (viability % of most effective monotherapy divided by viability % of combination) (GS186periNS; Day 5)	enhancement factor (viability % of most effective monotherapy divided by viability % of combination) (GS186periNS; Day 8)	enhancement factor (viability % of most effective monotherapy divided by viability % of combination) (GS279periNS; Day 5)	enhancement factor (viability % of most effective monotherapy divided by viability % of combination) (GS279periNS; Day 8)	enhancement factor (viability % of most effective monotherapy divided by viability % of combination) (GS365NS; Day 5)	also measured
C[C@]1(c2nc3c(C(N)=O)cccc3[nH]2)CCCN1 [ABT-888]	1.275	1.322	1.256	0.991	1.394	1.359	1.106	2.994	1.105	1.201	1.175	1.148	1.321	0.922	1.053	1.134	1.319	1.146	1.102	1.096	enhancement factor (viability % of most effective monotherapy divided by viability % of combination) (GS249NS; Day 8): 5.030; enhancement factor (viability % of most effective monotherapy divided by viability % of combination) (GS365NS; Day 8): 1.052; enhancement factor (viability % of most effective monotherapy divided by viability % of combination) (GS102periNS; Day 5): 1.248; enhancement factor (viability % of most effective monotherapy divided by viability % of combination) (GS102periNS; Day 8): 1.055; enhancement factor (viability % of most effective monotherapy divided by viability % of combination) (GS289NS; Day 5): 1.112; enhancement factor (viability % of most effective monotherapy divided by viability % of combination) (GS289NS; Day 8): 1.113; enhancement factor (viability % of most effective monotherapy divided by viability % of combination) (GS304NS; Day 5): 1.245; enhancement factor (viability % of most effective monotherapy divided by viability % of combination) (GS304NS; Day 8): 1.933; enhancement factor (viability % of most effective monotherapy divided by viability % of combination) (GS281NS; Day 5): 0.933; enhancement factor (viability % of most effective monotherapy divided by viability % of combination) (GS281NS; Day 8): 0.812; enhancement factor (viability % of most effective monotherapy divided by viability % of combination) (GS104periNS; Day 5): 1.175; enhancement factor (viability % of most effective monotherapy divided by viability % of combination) (GS104periNS; Day 8): 1.810; enhancement factor (viability % of most effective monotherapy divided by viability % of combination) (GS261NS; Day 5): 1.388; enhancement factor (viability % of most effective monotherapy divided by viability % of combination) (GS261NS; Day 8): 1.631; enhancement factor (viability % of most effective monotherapy divided by viability % of combination) (GS184NS; Day 5): 1.084; enhancement factor (viability % of most effective monotherapy divided by viability % of combination) (GS184NS; Day 8): 1.044
C/C(=C\C(=O)Nc1ccccc1C(=O)O)c1ccc2ccccc2c1 [BIBR1532]	1.282	1.713	1.364	1.936	1.787	1.498	0.959	0.909	0.969	0.469	2.499	1.168	1.526	1.322	2.162	2.900	1.010	1.361	1.214	1.767	enhancement factor (viability % of most effective monotherapy divided by viability % of combination) (GS203NS): 1.110; enhancement factor (viability % of most effective monotherapy divided by viability % of combination) (GS365NS; Day 8): 2.954; enhancement factor (viability % of most effective monotherapy divided by viability % of combination) (GS102periNS; Day 5): 1.414; enhancement factor (viability % of most effective monotherapy divided by viability % of combination) (GS102periNS; Day 8): 2.661; enhancement factor (viability % of most effective monotherapy divided by viability % of combination) (GS289NS; Day 5): 1.383; enhancement factor (viability % of most effective monotherapy divided by viability % of combination) (GS289NS; Day 8): 1.879; enhancement factor (viability % of most effective monotherapy divided by viability % of combination) (GS304NS; Day 8): 1.065; enhancement factor (viability % of most effective monotherapy divided by viability % of combination) (GS281NS; Day 5): 0.641; enhancement factor (viability % of most effective monotherapy divided by viability % of combination) (GS281NS; Day 8): 2.457; enhancement factor (viability % of most effective monotherapy divided by viability % of combination) (GS104periNS; Day 8): 1.247; enhancement factor (viability % of most effective monotherapy divided by viability % of combination) (GS184NS; Day 5): 1.752; enhancement factor (viability % of most effective monotherapy divided by viability % of combination) (GS184NS; Day 8): 1.367
